Experiment [1] has as its system PC-3 cells. Description: Proliferation assay, adherent monolayer, alamarBlue. The experiment is classed as cell-based, human. To be noted: adherent monolayers. As to the method:
PC-3 cells were incubated with compounds for 5 days at 37 °C/5% CO2, stained with alamarBlue® and fluorescence was determined (544 nm/590 nm). Data were analyzed as described above.
On the technique in general: Resazurin is reduced to fluorescent resorufin, in cell work by metabolically active cells.

Experiment [2] deals with PC-3 cells. In words: Clonogenic assay in soft agar (anchorage-independent growth). It is filed as cell-based, human. The conditions noted are these: alamarBlue, read-out: Colony formation EC50 PC-3. As to the method:
Clonogenic assays were performed using agarose-containing media. Cells were incubated at 37 °C and 5% CO2 for 14 days. alamarBlue® was used to detect colonies of viable cells (530 nm/590 nm). Data analysis was performed as described above.

In general, EC50 refers to the midpoint of the concentration-response curve. Take `CN(c1ncccc1CNc1nc(Nc2ccc3c(c2)CC(=O)N3)ncc1C(F)(F)F)S(C)(=O)=O` [PF-562,271, reference compound]: the EC50 in the experiment with PC-3 cells [1] was 1650 nM; with PC-3 cells [2] it was 42 nM.
